Experimental data from patent US11739098B2 (BRISTOL-MYERS SQUIBB COMPANY, priority 2017, dated 2023).

How the values were obtained:
Format in all cases: cell-based
human TLR9 = molecular target: T1, human TLR9 (Homo sapiens, UniProt Q9NR96); assay: TLR9 inhibition reporter assay (HEK-Blue cells, SEAP reporter, ODN2006 stimulation); details: HEK-Blue cells overexpressing human TLR9, SEAP reporter, ODN2006 5 nM
T1 construct: host or cells: HEK-Blue cells (HEK293-derived reporter line)
T1 sequence (Q9NR96 26-1032): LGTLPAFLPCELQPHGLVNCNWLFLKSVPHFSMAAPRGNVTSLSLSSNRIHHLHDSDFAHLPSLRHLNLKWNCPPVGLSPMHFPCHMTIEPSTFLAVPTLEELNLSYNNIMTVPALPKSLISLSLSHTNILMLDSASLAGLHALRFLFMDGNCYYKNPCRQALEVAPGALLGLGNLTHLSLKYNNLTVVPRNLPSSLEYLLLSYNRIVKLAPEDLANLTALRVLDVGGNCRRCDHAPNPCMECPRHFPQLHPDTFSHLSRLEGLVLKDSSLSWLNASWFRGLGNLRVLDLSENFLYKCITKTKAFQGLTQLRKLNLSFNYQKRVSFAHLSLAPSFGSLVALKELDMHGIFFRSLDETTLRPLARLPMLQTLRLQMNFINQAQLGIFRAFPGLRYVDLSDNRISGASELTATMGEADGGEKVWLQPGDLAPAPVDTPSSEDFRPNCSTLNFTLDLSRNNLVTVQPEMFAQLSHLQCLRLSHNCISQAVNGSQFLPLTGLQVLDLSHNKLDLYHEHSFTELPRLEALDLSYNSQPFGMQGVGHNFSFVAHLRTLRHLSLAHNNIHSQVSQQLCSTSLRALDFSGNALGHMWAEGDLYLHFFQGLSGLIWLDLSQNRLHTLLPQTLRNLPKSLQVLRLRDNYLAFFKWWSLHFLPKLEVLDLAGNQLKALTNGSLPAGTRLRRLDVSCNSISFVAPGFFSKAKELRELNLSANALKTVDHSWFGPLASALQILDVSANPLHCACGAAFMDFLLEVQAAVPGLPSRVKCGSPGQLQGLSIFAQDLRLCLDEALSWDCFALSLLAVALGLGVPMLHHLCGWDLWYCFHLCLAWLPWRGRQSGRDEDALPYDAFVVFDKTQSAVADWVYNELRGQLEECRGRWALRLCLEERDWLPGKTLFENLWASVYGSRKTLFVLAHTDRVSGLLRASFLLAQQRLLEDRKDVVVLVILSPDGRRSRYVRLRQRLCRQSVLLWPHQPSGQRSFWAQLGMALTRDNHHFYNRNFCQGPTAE
How it was run: (§1)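 HEK-Blue cells overexpressing the receptor, with NF-κB/AP-1-driven SEAP, were pre-treated 30 min at room temperature with compound (0.05 nM–50 μM), then stimulated with gardiquimod 7.5 μM (TLR7), R848 15.9 μM (TLR8) or ODN2006 5 nM (TLR9). SEAP was read after 22 h at 37 °C as percent inhibition.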

human TLR7 = molecular target: T2, human TLR7 (Homo sapiens, UniProt Q9NYK1); assay: TLR7 inhibition reporter assay (HEK-Blue cells, SEAP reporter, gardiquimod stimulation); details: HEK-Blue cells overexpressing human TLR7, SEAP reporter, gardiquimod 7.5 μM
T2 construct: host or cells: HEK-Blue cells (HEK293-derived reporter line)
T2 sequence (Q9NYK1 27-1049): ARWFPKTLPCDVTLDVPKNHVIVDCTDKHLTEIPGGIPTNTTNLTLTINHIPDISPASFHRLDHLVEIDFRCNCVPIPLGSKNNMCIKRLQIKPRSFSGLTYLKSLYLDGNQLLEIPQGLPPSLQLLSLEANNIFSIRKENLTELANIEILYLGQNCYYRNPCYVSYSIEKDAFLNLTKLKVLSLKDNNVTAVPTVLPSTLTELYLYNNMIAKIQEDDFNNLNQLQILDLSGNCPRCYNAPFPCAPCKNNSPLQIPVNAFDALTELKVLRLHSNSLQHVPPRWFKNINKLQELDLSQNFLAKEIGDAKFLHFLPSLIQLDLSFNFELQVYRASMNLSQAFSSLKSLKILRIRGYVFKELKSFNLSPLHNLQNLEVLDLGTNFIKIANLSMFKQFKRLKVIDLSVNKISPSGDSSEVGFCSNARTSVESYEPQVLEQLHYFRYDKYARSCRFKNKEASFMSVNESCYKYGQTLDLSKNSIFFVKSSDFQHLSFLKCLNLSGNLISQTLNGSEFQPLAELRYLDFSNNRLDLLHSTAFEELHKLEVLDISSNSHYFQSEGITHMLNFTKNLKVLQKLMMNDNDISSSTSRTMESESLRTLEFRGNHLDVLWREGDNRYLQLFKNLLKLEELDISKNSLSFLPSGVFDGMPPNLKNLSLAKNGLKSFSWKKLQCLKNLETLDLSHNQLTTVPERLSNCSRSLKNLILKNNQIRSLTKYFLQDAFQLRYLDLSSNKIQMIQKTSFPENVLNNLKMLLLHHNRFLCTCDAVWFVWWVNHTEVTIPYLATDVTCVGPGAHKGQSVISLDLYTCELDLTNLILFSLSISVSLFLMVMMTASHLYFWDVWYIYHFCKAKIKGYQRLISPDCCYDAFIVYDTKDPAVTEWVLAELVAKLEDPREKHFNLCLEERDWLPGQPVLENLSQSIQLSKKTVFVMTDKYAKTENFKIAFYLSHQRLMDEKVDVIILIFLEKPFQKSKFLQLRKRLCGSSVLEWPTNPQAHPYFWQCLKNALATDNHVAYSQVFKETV
How it was run: as §1

human TLR8 = molecular target: T3, human TLR8 (Homo sapiens, UniProt Q9NR97); assay: TLR8 inhibition reporter assay (HEK-Blue cells, SEAP reporter, R848 stimulation); details: HEK-Blue cells overexpressing human TLR8, SEAP reporter, R848 15.9 μM
T3 construct: host or cells: HEK-Blue cells (HEK293-derived reporter line)
T3 sequence (Q9NR97 27-1041): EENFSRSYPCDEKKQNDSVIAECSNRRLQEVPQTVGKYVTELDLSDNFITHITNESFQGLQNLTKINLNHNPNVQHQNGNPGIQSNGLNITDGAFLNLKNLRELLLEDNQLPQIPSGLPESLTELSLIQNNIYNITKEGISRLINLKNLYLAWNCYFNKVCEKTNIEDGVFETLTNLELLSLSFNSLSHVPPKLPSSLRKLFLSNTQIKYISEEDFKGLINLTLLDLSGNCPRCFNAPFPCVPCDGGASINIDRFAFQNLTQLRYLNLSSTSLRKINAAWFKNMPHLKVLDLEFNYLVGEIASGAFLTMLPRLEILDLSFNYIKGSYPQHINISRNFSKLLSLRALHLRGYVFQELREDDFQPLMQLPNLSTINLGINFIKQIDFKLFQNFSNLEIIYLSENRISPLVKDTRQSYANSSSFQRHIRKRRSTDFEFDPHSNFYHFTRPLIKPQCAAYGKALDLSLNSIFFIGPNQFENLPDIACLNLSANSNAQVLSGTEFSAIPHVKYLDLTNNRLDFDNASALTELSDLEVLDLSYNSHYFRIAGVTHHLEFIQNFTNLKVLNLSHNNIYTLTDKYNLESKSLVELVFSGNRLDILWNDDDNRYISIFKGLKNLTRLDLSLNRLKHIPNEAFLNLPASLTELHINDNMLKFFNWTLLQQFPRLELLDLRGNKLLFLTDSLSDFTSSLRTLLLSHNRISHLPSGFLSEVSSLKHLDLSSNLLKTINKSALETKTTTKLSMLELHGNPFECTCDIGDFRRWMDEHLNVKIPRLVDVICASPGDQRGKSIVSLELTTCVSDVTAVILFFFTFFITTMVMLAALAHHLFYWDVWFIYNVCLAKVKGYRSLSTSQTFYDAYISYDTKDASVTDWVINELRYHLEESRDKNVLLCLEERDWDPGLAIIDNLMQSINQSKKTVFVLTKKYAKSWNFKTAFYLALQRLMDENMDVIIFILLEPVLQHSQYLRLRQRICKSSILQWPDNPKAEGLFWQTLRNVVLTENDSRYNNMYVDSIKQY
How it was run: as §1

`CC(C)c1c(-c2cnc3nccn3c2)[nH]c2ccc(C3CCNCC3)cc12` [Example 200, 6-(3-isopropyl-5-(piperidin-4-yl)-1H-indol-2-yl)imidazo[1,2-a]pyrimidine] was tested, and the IC50 (human TLR9) was 100 to 1000 nM, the IC50 (human TLR7) was 100 to 1000 nM and the IC50 (human TLR8) was 100 to 1000 nM.

`Cc1cc(-c2[nH]c3ccc(C4CCN(CC(=O)N(C)C)CC4)cc3c2C(C)C)cc2nccn12` [Example 354, 2-(4-(3-isopropyl-2-(5-methylimidazo[1,2-a]pyridin-7-yl)-1H-indol-5-yl)piperidin-1-yl)-N,N-dimethylacetamide] was tested, and the IC50 (human TLR9) was 100 to 1000 nM, the IC50 (human TLR7) was 100 to 1000 nM and the IC50 (human TLR8) was 100 to 1000 nM.

Work on `CC(C)c1c(-c2ccc3[nH]cnc3c2)[nH]c2ccc(C3CCNCC3)cc12` [Example 50, 5-(3-isopropyl-5-(piperidin-4-yl)-1H-indol-2-yl)-1H-benzo[d]imidazole] yielded an IC50 (human TLR9) of 1000 to 50000 nM, an IC50 (human TLR7) of 100 to 1000 nM and an IC50 (human TLR8) of 1000 to 50000 nM.

With `CNCCN1CCC(c2ccc3[nH]c(-c4ccc5scnc5c4)c(C)c3c2)CC1` [compound 659] the IC50 (human TLR9) was 100 to 1000 nM, the IC50 (human TLR7) was 1000 to 50000 nM and the IC50 (human TLR8) was over 3130 nM.

`CC(C)c1c(-c2ccnc3c2ccn3S(C)(=O)=O)[nH]c2ccc(C3CCNCC3)cc12` [Example 3, 4-(3-isopropyl-5-(piperidin-4-yl)-1h-indol-2-yl)-1-(methylsulfonyl)-1H-pyrrolo[2,3-b]pyridine] showed an IC50 (human TLR9) of 100 to 1000 nM, an IC50 (human TLR7) of 100 to 1000 nM and an IC50 (human TLR8) of under 100 nM.

With `Cc1cc(-c2[nH]c3ccc(C4CCN(C(=O)CN(C)C)CC4)cc3c2C(C)C)cn2ccnc12` [Example 528, 2-(dimethylamino)-1-(4-(3-isopropyl-2-(8-methylimidazo[1,2-a]pyridin-6-yl)-1H-indol-5-yl)piperidin-1-yl)ethan-1-one] the IC50 (human TLR9) was 100 to 1000 nM, the IC50 (human TLR7) was under 100 nM and the IC50 (human TLR8) was under 100 nM.

With `COc1cc(-c2[nH]c3ccc(C4CCN(CCNS(C)(=O)=O)CC4)cc3c2C(C)C)nn2ncnc12` [Example 652, N-(2-(4-(3-isopropyl-2-(8-methoxy-[1,2,4]triazolo[1,5-b]pyridazin-6-yl)-1H-indol-5-yl)piperidin-1-yl)ethyl)methanesulfonamide] the IC50 (human TLR9) was 1000 to 50000 nM, the IC50 (human TLR7) was under 100 nM and the IC50 (human TLR8) was under 100 nM.

With `Cc1cn2cc(-c3[nH]c4ccc(C5CCNCC5)cc4c3C(C)C)cnc2n1` [Example 159, 6-(3-isopropyl-5-(piperidin-4-yl)-1H-indol-2-yl)-2-methylimidazo[1,2-a]pyrimidine] the IC50 (human TLR9) was 100 to 1000 nM, the IC50 (human TLR7) was under 100 nM and the IC50 (human TLR8) was 1000 to 50000 nM.

Work on `CC(C)c1c(-c2ccnc3[nH]ncc23)[nH]c2ccc(C3CCN(Cc4cn(C)cn4)CC3)cc12` [Example 906, 4-(3-isopropyl-5-(1-((1-methyl-1H-imidazol-4-yl)methyl)piperidin-4-yl)-1H-indol-2-yl)-1H-pyrazolo[3,4-b]pyridine] yielded an IC50 (human TLR9) of 100 to 1000 nM, an IC50 (human TLR7) of under 100 nM and an IC50 (human TLR8) of under 100 nM.

In the case of `CCc1c(-c2ccnc3[nH]ncc23)[nH]c2ccc(C3CCN(Cc4cnc(N)s4)CC3)cc12` [Example 931, 5-((4-(3-ethyl-2-(1H-pyrazolo[3,4-b]pyridin-4-yl)-1H-indol-5-yl)piperidin-1-yl)methyl)thiazol-2-amine], the IC50 (human TLR9) is reported as over 50000 nM, the IC50 (human TLR7) is reported as over 50000 nM and the IC50 (human TLR8) is reported as over 50000 nM.

`Cc1nnn2ccc(-c3[nH]c4ccc(C5CCN(C(=O)CN(C)C)CC5)cc4c3C(C)C)cc12` [Example 487, 2-(dimethylamino)-1-(4-(3-isopropyl-2-(3-methyl-[1,2,3]triazolo[1,5-a]pyridin-5-yl)-1H-indol-5-yl)piperidin-1-yl)ethan-1-one] gave an IC50 (human TLR9) of 1000 to 50000 nM, an IC50 (human TLR7) of under 100 nM and an IC50 (human TLR8) of under 100 nM.

`CNCCN1CCC(c2ccc3[nH]c(-c4ccc5nccnc5c4)c(C)c3c2)CC1` [Example 658] gave an IC50 (human TLR9) of 100 to 1000 nM, an IC50 (human TLR7) of 1000 to 50000 nM and an IC50 (human TLR8) of 1000 to 50000 nM.

For `CCc1c(-c2cc3cn(C)nc3cn2)[nH]c2ccc(C3CCNCC3)cc12` [Example 98, 5-(3-ethyl-5-(piperidin-4-yl)-1H-indol-2-yl)-2-methyl-2H-pyrazolo[3,4-c]pyridine], the IC50 (human TLR9) was 1000 to 50000 nM, the IC50 (human TLR7) was 1000 to 50000 nM and the IC50 (human TLR8) was 100 to 1000 nM.

Work on `Cc1cc(-c2[nH]c3ccc(C4CCN(C(=O)CCN5CCOCC5)CC4)cc3c2C(C)C)cn2nnnc12` [Example 627, 1-(4-(3-isopropyl-2-(8-methyltetrazolo[1,5-a]pyridin-6-yl)-1H-indol-5-yl)piperidin-1-yl)-3-morpholinopropan-1-one] yielded an IC50 (human TLR9) of 1000 to 50000 nM, an IC50 (human TLR7) of under 100 nM and an IC50 (human TLR8) of under 100 nM.

With `Cc1cn2cc(-c3[nH]c4ccc(C5CCN(Cc6c[nH]cn6)CC5)cc4c3C(C)C)ccc2n1` [Example 936, 6-(5-(1-((1H-imidazol-4-yl)methyl)piperidin-4-yl)-3-isopropyl-1H-indol-2-yl)-2-methylimidazo[1,2-a]pyridine] the IC50 (human TLR9) was under 100 nM, the IC50 (human TLR7) was under 100 nM and the IC50 (human TLR8) was 100 to 1000 nM.

`CC(C)c1c(-c2nc3c(N)ncnc3[nH]2)[nH]c2ccc(C3CCNCC3)cc12` [Example 8, 8-(3-isopropyl-5-(piperidin-4-yl)-1H-indol-2-yl)-9H-purin-6-amine] showed an IC50 (human TLR9) of 1000 to 50000 nM, an IC50 (human TLR7) of 100 to 1000 nM and an IC50 (human TLR8) of over 3130 nM.
